1 compound from patent publication US6506339B1, “Method of sterilization” (Biomedical Design, Inc., priority 1997, dated 2003) can be followed below.

SMILES strings stand for the structures. Marks after values point to notes of the source that are not given here.

Assay [1] deals with Bacillus subtilis (niger) spores. Put plainly: Sterilization without isopropyl alcohol and sulfo-NHS, cups with or without porcine valve tissue (Example 4B). Type of assay: cell-based. The note with it: 40° C., no isopropyl alcohol or sulfo-NHS. As for the experimental part:
An experiment similar to that of Example 2 is carried out using EDC as a coupling agent in the absence of isopropyl alcohol and sulfo-NHS. Bacillus subtilis (niger) spores at levels of about 10^6 are inoculated in sterile cups, some of which contain cross-linked porcine aortic valve tissue, for approximately 10 minutes. Solutions (50 ml) of 25, 50 and 70 mM EDC in 10 mM TRIS, 0.85% NaCl, pH 6.5, are prewarmed to 40° C., respectively added to the cups, and incubated at 40° C. for 1 to 3 days. The solutions are then diluted and filtered in order to collect microorganisms. The valve tissue is washed for 20 minutes in a reciprocating shaker in the presence of peptone water containing polyethylenesorbitan monooleate (Tween 80) in order to extract all spores of microorganisms from the tissue; the peptone water solution is added to the corresponding filter. Next, the filters are rinsed with a 0.1% peptone water solution to eliminate any residual EDC and incubated on TSA plates for 14 days. The plates are examined every day for growth, counting the colony forming units (CFUs).

Assay [2] has the same test system. Description: Sterilization without isopropyl alcohol with porcine aortic root tissue (Example 4C). The note with it: 40° C., 1.5×10^6 spores with root tissue, no isopropyl alcohol. Type of assay: cell-based. The procedure: An experiment similar to that of Example 4A is carried out using slightly higher concentrations of EDC and including porcine aortic root tissue. Bacillus subtilis (niger) spores at levels of 1.5×10^6 are inoculated for approximately 10 minutes in sterile cups each containing root tissue. Solutions (50 ml) of 50, 75 and 100 mM EDC in 10 mM TRIS, 0.85% NaCl, pH 6.5 are prewarmed to 40° C. and then rapidly added to the tissues in the cups. The cups containing the tissue are incubated at 40° C. for 6, 9, 12, 24 and 48 hours; then, the solutions are diluted and filtered in order to collect microorganisms. The valve tissue is washed for 20 minutes in a reciprocating shaker in the presence of peptone water containing Tween 80 in order to extract all spores of microorganisms from the tissue. The solutions from the shakers are filtered through the respective filters to which the original solutions were applied. The filters are rinsed with a 0.1% peptone water solution and incubated on TSA plates for up to 14 days. The plates are examined daily for growth.

Assay [3] has as its system Chaetonium globosom ATCC 6205 spores. Description: Sterilization in cups at about 38° C. (Example 6). Type of assay: cell-based, Chaetonium globosum. The note with it: 25 mM EDC, 20% isopropanol, inoculum Log 10 ˜4.7. The procedure: (§1) In view of the foregoing verification, it was decided to test the effectiveness of the sterilization process against other bacteria using sterile cups. Added to each of the cups is 20 ml of 10 mM HEPES, 0.85%, Nacl, 20% isopropanol, pH 6.5, containing 25 mM EDC without any coupling enhancer, before the cups are placed in a incubator at about 38° C. When the solution temperature reached about 38° C., approximately 10^5-10^6 organisms were inoculated into the solution. The tests were carried out in triplicate. The following four isolated were tested in the form of sporous suspensions: Clostridium sporogenes ATCC 3584, Bacillus pumilus ATCC 27142, Chaetonium globosom ATCC 6205, and Microacus cinereus ATCC 16594. The following three isolates were tested as vegetative cells: Mycobacterium chelonae ATCC 35752, Methylbacterium extorquens ATCC 43645 and Trichosporon aquatile ATCC 22310. The inoculated systems were allowed to incubate for 1 hour, for 5 hours or for 24 hours, and the solutions were then filtered through a 0.45 micron filter. After rinsing, the filter was placed on a TSA plate as described in Example 1. Negative and positive controls indicate that the tests were valid. The results are set forth in Table D which follows wherein the number of CFUs in the inoculum is expressed as its log to the base 10, e.g. 3.4×10^5=5.5: […]

Assay [4] concerns Bacillus pumilus ATCC 27142 spores. Put plainly: Sterilization in cups at about 38° C. (Example 6). Type of assay: cell-based. The note with it: 25 mM EDC, 20% isopropanol. The procedure:
as §1

Assay [5] deals with Clostridium sporogenes ATCC 3584 spores. Description: Sterilization in cups at about 38° C. (Example 6). Type of assay: cell-based. To be noted: 25 mM EDC, 20% isopropanol. As for the experimental part:
as §1

For assay [6], the system named is Mycobacterium chelonae ATCC 35752 vegetative cells. Put plainly: Sterilization in cups at about 38° C. (Example 6). Type of assay: cell-based. To be noted: 25 mM EDC, 20% isopropanol, 1 Hour, inoculum Log 10 5.15. As for the experimental part: as §1
Assay [7] deals with Trichosporon aquatile ATCC 22310 vegetative cells. Description: Sterilization in cups at about 38° C. (Example 6). Type of assay: cell-based. The note with it: 25 mM EDC, 20% isopropanol, inoculum Log 10 4.3. The procedure: as §1

As for `CCN=C=NCCCN(C)C.Cl` [EDC, 1-ethyl-3(3-dimethylaminopropyl)carbodiimide hydrochloride], the “time within which effective sterilization (inactivation of 1×10^6 spores) occurs” value in assay [1] (25 mM EDC), in assay [1] (50 mM EDC) and in assay [1] (70 mM EDC) was not above 24 hours each time. The inactivation of spores entry is “only partial kill” in assay [2] (50 mM EDC, 6 hours); “complete inactivation of the spores” in assay [2] (50 mM EDC, 9 hours); “effectively inactivates these spores” in assay [2] (75 mM EDC, 6 hours); “complete inactivation of the spores” in assay [2] (75 mM EDC, 9 hours); “effectively inactivates these spores” in assay [2] (100 mM EDC, 6 hours); “complete inactivation of the spores” in assay [2] (100 mM EDC, 9 hours). In addition, the entries for the “hours of incubation of plates after which no growth was observed” value in assay [3] (5 Hours treatment) and in assay [3] (24 Hours treatment) were “(72 hrs.)*” and “(96 hrs.)*”, respectively. The “Log REDUCTION” value is given as 3.68 in assay [4] (1 Hour, inoculum Log 10 5.45); 4.41 in assay [4] (5 Hours, inoculum Log 10 5.45); 5.22 in assay [4] (24 Hours, inoculum Log 10 5.22); 2.12 in assay [5] (1 Hour, inoculum Log 10 4.6); 3.02 in assay [5] (5 Hours, inoculum Log 10 4.6); 3.65 in assay [5] (24 Hours, inoculum Log 10 3.65). Also, the “Log REDUCTION” value is on record as 5.15 in assay [6], 4.3 in assay [7] (1 Hour) and 4.3 in assay [7] (5 Hours).
